Results reported in patent publication US20110212196A1, “THERAPEUTIC OIL COMPOSITION CONTAINING CARVONE” (MAINE CONSERVATION MEDICINE CENTER, priority 2010, published 2011).

Experiments:
elasmobranch fishes = test: anesthesia of elasmobranch fishes by immersion; assay type: in vivo, spiny dogfish Squalus acanthias; conditions: 400-600 mg/L carvone alone, oil-in-water emulsion
Excerpt: 3. […] For examples spiny dogfish Squalus acanthias can be anesthetized by immersion.

fish = conditions: in vivo; cited from earlier work

Row | SMILES | anesthesia (elasmobranch fishes) | safety during anesthesia/euthanasia (fish)
1 | C=C(C)C1CC=C(C)C(=O)C1 (centres unmarked) [carvone] | will anesthetize | –
2 | O=C=O [carbon dioxide] | – | Some fish died during anesthesia
